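Where inhibition never reached the appropriate level, the endpoint shown equals the highest concentration tested. Otherwise, values were interpolated linearly from a five-concentration, 48-hour dose response in 96-well plates. TGI: total growth inhibition.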
Experiments:
Assay in all cases: growth of human tumour cells (NCI), 48 h
COLO 205 colon = tested on: COLO 205 colon
SN12C renal = tested on: SN12C renal
RPMI-8226 leukemia = tested on: RPMI-8226 leukemia
HT29 colon = tested on: HT29 colon
OVCAR-8 ovarian = tested on: OVCAR-8 ovarian
EKVX NSCLC = tested on: EKVX NSCLC
KM12 colon = tested on: KM12 colon
K-562 leukemia = tested on: K-562 leukemia
TK-10 renal = tested on: TK-10 renal
T-47D breast = tested on: T-47D breast
SK-MEL-2 melanoma = tested on: SK-MEL-2 melanoma
MDA-N = tested on: MDA-N
HL-60(TB) leukemia = tested on: HL-60(TB) leukemia
786-0 renal = tested on: 786-0 renal
OVCAR-4 ovarian = tested on: OVCAR-4 ovarian
LOX IMVI melanoma = tested on: LOX IMVI melanoma
SK-MEL-5 melanoma = tested on: SK-MEL-5 melanoma
NCI-H23 lung = tested on: NCI-H23 lung
IGROV1 ovarian = tested on: IGROV1 ovarian
HCT-15 colon = tested on: HCT-15 colon
DU-145 prostate = tested on: DU-145 prostate
HS 578T breast = tested on: HS 578T breast
A549 NSCLC = tested on: A549 NSCLC
UACC-62 melanoma = tested on: UACC-62 melanoma
SK-MEL-28 melanoma = tested on: SK-MEL-28 melanoma
OVCAR-3 ovarian = tested on: OVCAR-3 ovarian
ACHN renal = tested on: ACHN renal
SF-268 CNS = tested on: SF-268 CNS
NCI-H226 lung = tested on: NCI-H226 lung
MOLT-4 leukemia = tested on: MOLT-4 leukemia
U251 CNS = tested on: U251 CNS
SNB-19 CNS = tested on: SNB-19 CNS
MALME-3M melanoma = tested on: MALME-3M melanoma
SF-295 CNS = tested on: SF-295 CNS
BT-549 breast = tested on: BT-549 breast
M14 melanoma = tested on: M14 melanoma
CCRF-CEM leukemia = tested on: CCRF-CEM leukemia
UACC-257 melanoma = tested on: UACC-257 melanoma
HCT-116 colon = tested on: HCT-116 colon
NCI-H522 lung = tested on: NCI-H522 lung
PC-3 prostate = tested on: PC-3 prostate
NCI/ADR-RES ovarian = tested on: NCI/ADR-RES ovarian
OVCAR-5 ovarian = tested on: OVCAR-5 ovarian
A498 renal = tested on: A498 renal
MDA-MB-435 = tested on: MDA-MB-435
RXF 393 renal = tested on: RXF 393 renal
MDA-MB-231 breast = tested on: MDA-MB-231 breast
MCF7 breast = tested on: MCF7 breast
CAKI-1 renal = tested on: CAKI-1 renal
SW-620 colon = tested on: SW-620 colon
HOP-62 NSCLC = tested on: HOP-62 NSCLC
UO-31 renal = tested on: UO-31 renal
NCI-H460 lung = tested on: NCI-H460 lung
SK-OV-3 ovarian = tested on: SK-OV-3 ovarian
SF-539 CNS = tested on: SF-539 CNS
SNB-75 CNS = tested on: SNB-75 CNS
HCC-2998 colon = tested on: HCC-2998 colon

O=c1[nH]nc(Cc2ccccc2)n1/N=C/c1ccc(/C=N/n2c(Cc3ccccc3)n[nH]c2=O)cc1
TGI (COLO 205 colon): > 100 µM | TGI (SN12C renal): > 100 µM | TGI (RPMI-8226 leukemia): > 100 µM | TGI (HT29 colon): > 100 µM | TGI (OVCAR-8 ovarian): > 100 µM | TGI (EKVX NSCLC): > 100 µM | TGI (KM12 colon): > 100 µM | TGI (K-562 leukemia): 50.5 µM | TGI (TK-10 renal): > 100 µM | TGI (T-47D breast): > 100 µM | TGI (SK-MEL-2 melanoma): > 100 µM | TGI (MDA-N): > 100 µM | TGI (HL-60(TB) leukemia): > 100 µM | TGI (786-0 renal): > 100 µM | TGI (OVCAR-4 ovarian): > 100 µM | TGI (LOX IMVI melanoma): > 100 µM | TGI (SK-MEL-5 melanoma): > 100 µM | TGI (NCI-H23 lung): > 100 µM | TGI (IGROV1 ovarian): > 100 µM | TGI (HCT-15 colon): > 100 µM | TGI (DU-145 prostate): > 100 µM | TGI (HS 578T breast): > 100 µM | TGI (A549 NSCLC): > 100 µM | TGI (UACC-62 melanoma): > 100 µM | TGI (SK-MEL-28 melanoma): > 100 µM | TGI (OVCAR-3 ovarian): > 100 µM | TGI (ACHN renal): > 100 µM | TGI (SF-268 CNS): > 100 µM | TGI (NCI-H226 lung): > 100 µM | TGI (MOLT-4 leukemia): 47 µM | TGI (U251 CNS): > 100 µM | TGI (SNB-19 CNS): > 100 µM | TGI (MALME-3M melanoma): > 100 µM | TGI (SF-295 CNS): > 100 µM | TGI (BT-549 breast): > 100 µM | TGI (M14 melanoma): > 100 µM | TGI (CCRF-CEM leukemia): 50.7 µM | TGI (UACC-257 melanoma): > 100 µM | TGI (HCT-116 colon): > 100 µM | TGI (NCI-H522 lung): > 100 µM | TGI (PC-3 prostate): > 100 µM | TGI (NCI/ADR-RES ovarian): > 100 µM | TGI (OVCAR-5 ovarian): > 100 µM | TGI (A498 renal): > 100 µM | TGI (MDA-MB-435): > 100 µM | TGI (RXF 393 renal): > 100 µM | TGI (MDA-MB-231 breast): > 100 µM | TGI (MCF7 breast): > 100 µM | TGI (CAKI-1 renal): > 100 µM | TGI (SW-620 colon): > 100 µM | TGI (HOP-62 NSCLC): > 100 µM | TGI (UO-31 renal): > 100 µM | TGI (NCI-H460 lung): > 100 µM

CCOC(=O)c1nnsc1NC(=O)NN
TGI (SK-OV-3 ovarian): > 100 µM | TGI (COLO 205 colon): > 100 µM | TGI (SN12C renal): > 100 µM | TGI (RPMI-8226 leukemia): > 100 µM | TGI (HT29 colon): > 100 µM | TGI (OVCAR-8 ovarian): > 100 µM | TGI (EKVX NSCLC): > 100 µM | TGI (KM12 colon): > 100 µM | TGI (K-562 leukemia): > 100 µM | TGI (TK-10 renal): > 100 µM | TGI (T-47D breast): > 100 µM | TGI (SK-MEL-2 melanoma): > 100 µM | TGI (MDA-N): > 100 µM | TGI (HL-60(TB) leukemia): > 100 µM | TGI (786-0 renal): > 100 µM | TGI (LOX IMVI melanoma): > 100 µM | TGI (SF-539 CNS): > 100 µM | TGI (SK-MEL-5 melanoma): > 100 µM | TGI (NCI-H23 lung): > 100 µM | TGI (IGROV1 ovarian): > 100 µM | TGI (HCT-15 colon): > 100 µM | TGI (DU-145 prostate): > 100 µM | TGI (HS 578T breast): > 100 µM | TGI (A549 NSCLC): > 100 µM | TGI (UACC-62 melanoma): > 100 µM | TGI (SK-MEL-28 melanoma): > 100 µM | TGI (OVCAR-3 ovarian): > 100 µM | TGI (ACHN renal): > 100 µM | TGI (SNB-75 CNS): > 100 µM | TGI (SF-268 CNS): > 100 µM | TGI (NCI-H226 lung): > 100 µM | TGI (U251 CNS): > 100 µM | TGI (SNB-19 CNS): > 100 µM | TGI (MALME-3M melanoma): > 100 µM | TGI (SF-295 CNS): > 100 µM | TGI (BT-549 breast): > 100 µM | TGI (M14 melanoma): > 100 µM | TGI (CCRF-CEM leukemia): > 100 µM | TGI (HCC-2998 colon): > 100 µM | TGI (UACC-257 melanoma): > 100 µM | TGI (HCT-116 colon): > 100 µM | TGI (NCI-H522 lung): > 100 µM | TGI (PC-3 prostate): > 100 µM | TGI (NCI/ADR-RES ovarian): > 100 µM | TGI (OVCAR-5 ovarian): > 100 µM | TGI (A498 renal): > 100 µM | TGI (MDA-MB-435): > 100 µM | TGI (RXF 393 renal): > 100 µM | TGI (MDA-MB-231 breast): > 100 µM | TGI (MCF7 breast): > 100 µM | TGI (CAKI-1 renal): > 100 µM | TGI (SW-620 colon): > 100 µM | TGI (HOP-62 NSCLC): > 100 µM | TGI (UO-31 renal): > 100 µM | TGI (NCI-H460 lung): > 100 µM

From PubChem BioAssay (NCI)
